Results: ChEMBL document CHEMBL4311934, “Exploration of [2 + 2 + 2] cyclotrimerisation methodology to prepare tetrahydroisoquinoline-based compounds with potential aldo-keto reductase 1C3 target affinity” (Medchemcomm, 2019)

What was measured:
[1] = molecular target: T1, Aldo-keto reductase family 1 member C3 (Homo sapiens, UniProt P42330); test: Inhibition of N-terminal GST-tagged recombinant human AKR1C3 expressed in Escherichia coli BL21 (DE) Codon Plus RP cells assessed as reduction in NADPH production using S-tetralol as substrate in presence of NADP+ by fluorimetry assay
T1 sequence (P42330 whole entry): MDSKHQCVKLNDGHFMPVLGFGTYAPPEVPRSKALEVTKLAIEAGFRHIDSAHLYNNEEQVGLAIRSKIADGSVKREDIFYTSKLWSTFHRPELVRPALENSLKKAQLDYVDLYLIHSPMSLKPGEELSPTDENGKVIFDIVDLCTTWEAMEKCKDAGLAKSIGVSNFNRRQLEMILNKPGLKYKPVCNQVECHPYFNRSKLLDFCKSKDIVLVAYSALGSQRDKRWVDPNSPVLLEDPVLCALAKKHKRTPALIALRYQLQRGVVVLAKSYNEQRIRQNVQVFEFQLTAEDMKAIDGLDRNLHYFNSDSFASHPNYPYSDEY

Homo sapiens = species on record: Homo sapiens; test: Selectivity index, ratio of IC50 for N-terminal GST-tagged recombinant human AKR1C2 expressed in Escherichia coli BL21 (DE) Codon Plus RP cells to IC50 for N-terminal GST-tagged recombinant human AKR1C3 expressed in Escherichia coli BL21 (DE) Codon Plus RP cells
[2] = molecular target: T2, Aldo-keto reductase family 1 member C2 (Homo sapiens, UniProt P52895); test: Inhibition of N-terminal GST-tagged recombinant human AKR1C2 expressed in Escherichia coli BL21 (DE) Codon Plus RP cells assessed as reduction in NADPH production using S-tetralol as substrate in presence of NADP+ by fluorimetry assay
T2 sequence (P52895 whole entry): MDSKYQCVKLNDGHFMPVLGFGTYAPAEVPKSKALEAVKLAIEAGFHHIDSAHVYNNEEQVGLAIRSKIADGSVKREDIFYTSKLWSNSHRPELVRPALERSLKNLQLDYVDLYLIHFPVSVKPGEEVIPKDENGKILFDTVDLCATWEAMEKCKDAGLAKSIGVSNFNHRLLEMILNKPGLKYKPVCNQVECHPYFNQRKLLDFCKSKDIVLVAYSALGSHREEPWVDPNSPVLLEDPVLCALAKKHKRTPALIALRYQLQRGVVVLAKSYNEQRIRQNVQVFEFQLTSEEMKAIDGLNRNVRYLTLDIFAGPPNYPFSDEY

[3] = molecular target: T3, Aldo-keto reductase family 1 member C3 (Homo sapiens) (UniProt P42330); test: Inhibition of N-terminal GST-tagged recombinant human AKR1C3 expressed in Escherichia coli BL21 (DE) Codon Plus RP cells assessed as reduction in NADPH production at 50 uM using S-tetralol as substrate in presence of NADP+ by fluorimetry assay relative to control
T3 sequence (whole entry): T1 sequence (P42330 whole entry)

[4] = molecular target: T4, Aldo-keto reductase family 1 member C2 (Homo sapiens) (UniProt P52895); test: Inhibition of N-terminal GST-tagged recombinant human AKR1C2 expressed in Escherichia coli BL21 (DE) Codon Plus RP cells assessed as reduction in NADPH production 50 uM using S-tetralol as substrate in presence of NADP+ by fluorimetry assay relative to control
T4 sequence (whole entry): T2 sequence (P52895 whole entry)

inhibition [3] [%] | inhibition [4] [%] | SMILES | IC50 [1] [µM] | Ratio IC50 (Homo sapiens) | IC50 [2] [µM]
– | – | CCOC(=O)c1cc2c(cc1C(=O)OCC)CN1C(=O)CCC1C2 (stereo unspecified) | 11.7 | 8 | 96.2
– | – | O=C(O)c1cc2c(cc1C(=O)O)CN1C(=O)CCC1C2 (stereo unspecified) | 23.1 | – | 27.3
25 | 26.9 | O=C1CCC2Cc3cc(CO)c(CO)cc3CN12 (stereo unspecified) | > 50 | – | > 50
– | – | COc1ccc2cc3[n+](cc2c1OC)CCc1cc2c(cc1-3)OCO2 [BERBERINE] | 5.9 | – | 6.71
